Source: patent publication US11319299B2, “Substituted carboxamides as inhibitors of WDR5 protein-protein binding” (PROPELLON THERAPEUTICS INC., priority 2016, dated 2022)

target: WDR5 (Homo sapiens (Human), UniProt P61964); experiment: Surface Plasmon Resonance (SPR) assay, KD and residence time; format: binding; details: surface plasmon resonance (SPR); read-out: WDR5 binding affinity (KD)

Row | SMILES | Kd [nM]
1 | C[C@@H]1CN(c2cc(F)c(-c3nc(C(=O)NC4CCCCC4)cs3)cc2NC(=O)c2c[nH]c(=O)cc2C(F)(F)F)C[C@H](C)N1C [Example 484, N-Cyclohexyl-2-[2-fluoro-5-[[6-oxo-4-(trifluoromethyl)-1H-pyridine-3-carbonyl]amino]-4-[(3R,5S)-3,4,5-trimethylpiperazin-1-yl]phenyl]-1,3-thiazole-4-carboxamide] | 3.07
2 | C[C@@H]1CN(c2cc(F)c(-c3nc(C(=O)N(C)C4CCCCC4)cs3)cc2NC(=O)c2c[nH]c(=O)cc2C(F)(F)F)C[C@H](C)N1C [Example 485, N-cyclohexyl-2-[2-fluoro-5-[[6-oxo-4-(trifluoromethyl)-1H-pyridine-3-carbonyl]amino]-4-[(3R,5S)-3,4,5-trimethylpiperazin-1-yl]phenyl]-N-methyl-1,3-thiazole-4-carboxamide] | 2.21
3 | C[C@@H]1CN(c2cc(F)c(-c3nc(C(=O)N4CCOCC4)cs3)cc2NC(=O)c2c[nH]c(=O)cc2C(F)(F)F)C[C@H](C)N1C [Example 486, N-[4-fluoro-5-[4-(morpholine-4-carbonyl)-1,3-thiazol-2-yl]-2-[(3R,5S)-3,4,5-trimethylpiperazin-1-yl]phenyl]-6-oxo-4-(trifluoromethyl)-1H-pyridine-3-carboxamide] | 2.44
4 | C[C@@H]1CN(c2cc(F)c(-c3nc(C(=O)N4CCN(C)CC4)cs3)cc2NC(=O)c2c[nH]c(=O)cc2C(F)(F)F)C[C@H](C)N1C [Example 487, N-[4-fluoro-5-[4-(4-methylpiperazine-1-carbonyl)-1,3-thiazol-2-yl]-2-[(3R,5S)-3,4,5-trimethylpiperazin-1-yl]phenyl]-6-oxo-4-(trifluoromethyl)-1H-pyridine-3-carboxamide] | 2.81
5 | C[C@@H]1CN(c2cc(F)c(C3=CCN(C(=O)OC4(C)COC4)CC3)cc2NC(=O)c2c[nH]c(=O)cc2C(F)(F)F)C[C@H](C)N1C [Example 488, (3-methyloxetan-3-yl) 4-[2-fluoro-5-[[6-oxo-4-(trifluoromethyl)-1H-pyridine-3-carbonyl]amino]-4-[(3R,5S)-3,4,5-trimethylpiperazin-1-yl]phenyl]-3,6-dihydro-2H-pyridine-1-carboxylate] | 4.87
6 | C[C@@H]1CN(c2cc(F)c(C3=CCCN(C(=O)OC4(C)COC4)C3)cc2NC(=O)c2c[nH]c(=O)cc2C(F)(F)F)C[C@H](C)N1C [Example 489, (3-methyloxetan-3-yl) 5-[2-fluoro-5-[[6-oxo-4-(trifluoromethyl)-1H-pyridine-3-carbonyl]amino]-4-[(3R,5S)-3,4,5-trimethylpiperazin-1-yl]phenyl]-3,6-dihydro-2H-pyridine-1-carboxylate] | 2.74
7 | C[C@@H]1CN(c2cc(F)c(C3=CCN(C(=O)OC4(C)COC4)C3)cc2NC(=O)c2c[nH]c(=O)cc2C(F)(F)F)C[C@H](C)N1C [Example 490, (3-methyloxetan-3-yl) 3-[2-fluoro-5-[[6-oxo-4-(trifluoromethyl)-1H-pyridine-3-carbonyl]amino]-4-[(3R,5S)-3,4,5-trimethylpiperazin-1-yl]phenyl]-2,5-dihydropyrrole-1-carboxylate] | 3.24
8 | C[C@@H]1CN(c2cc(F)c(-c3ccc(CN4CCOCC4)s3)cc2NC(=O)c2c[nH]c(=O)cc2C(F)(F)F)C[C@H](C)N1C [Example 491, N-[4-fluoro-5-[5-(morpholin-4-ylmethyl)thiophen-2-yl]-2-[(3R,5S)-3,4,5-trimethylpiperazin-1-yl]phenyl]-6-oxo-4-(trifluoromethyl)-1H-pyridine-3-carboxamide] | 3.59
9 | C[C@@H]1CN(c2cc(F)c(-c3cccs3)cc2NC(=O)c2c[nH]c(=O)cc2C(F)(F)F)C[C@H](C)N1C [Example 492, N-[4-fluoro-2-[(3R,5S)-3,4,5-trimethylpiperazin-1-yl]-5-thiophen-2-ylphenyl]-6-oxo-4-(trifluoromethyl)-1H-pyridine-3-carboxamide] | 3.35
10 | C[C@@H]1CN(c2cc(F)c(-c3ccsc3)cc2NC(=O)c2c[nH]c(=O)cc2C(F)(F)F)C[C@H](C)N1C [Example 493, N-[4-fluoro-2-[(3R,5S)-3,4,5-trimethylpiperazin-1-yl]-5-thiophen-3-ylphenyl]-6-oxo-4-(trifluoromethyl)-1H-pyridine-3-carboxamide] | 2.86
11 | C[C@@H]1CN(c2cc(F)c(-c3csc(CN4CCOCC4)c3)cc2NC(=O)c2c[nH]c(=O)cc2C(F)(F)F)C[C@H](C)N1C [Example 494, N-[4-fluoro-5-[5-(morpholin-4-ylmethyl)thiophen-3-yl]-2-[(3R,5S)-3,4,5-trimethylpiperazin-1-yl]phenyl]-6-oxo-4-(trifluoromethyl)-1H-pyridine-3-carboxamide] | 3.01
12 | C[C@@H]1CN(c2cc(F)c(-c3ncc(C(=O)NCC4CC4)s3)cc2NC(=O)c2c[nH]c(=O)cc2C(F)(F)F)C[C@H](C)N1C [Example 496, N-(cyclopropylmethyl)-2-[2-fluoro-5-[[6-oxo-4-(trifluoromethyl)-1H-pyridine-3-carbonyl]amino]-4-[(3R,5S)-3,4,5-trimethylpiperazin-1-yl]phenyl]-1,3-thiazole-5-carboxamide] | 3.03
13 | C[C@@H]1CN(c2cc(F)c(-c3ncc(C(=O)N(C)CC4CC4)s3)cc2NC(=O)c2c[nH]c(=O)cc2C(F)(F)F)C[C@H](C)N1C [Example 497, N-(cyclopropylmethyl)-2-[2-fluoro-5-[[6-oxo-4-(trifluoromethyl)-1H-pyridine-3-carbonyl]amino]-4-[(3R,5S)-3,4,5-trimethylpiperazin-1-yl]phenyl]-N-methyl-1,3-thiazole-5-carboxamide] | 2.59
14 | C[C@@H]1CN(c2cc(F)c(-c3ncc(C(=O)NC4CCCCC4)s3)cc2NC(=O)c2c[nH]c(=O)cc2C(F)(F)F)C[C@H](C)N1C [Example 498, N-cyclohexyl-2-[2-fluoro-5-[[6-oxo-4-(trifluoromethyl)-1H-pyridine-3-carbonyl]amino]-4-[(3R,5S)-3,4,5-trimethylpiperazin-1-yl]phenyl]-1,3-thiazole-5-carboxamide] | 1.47
15 | C[C@@H]1CN(c2cc(F)c(-c3ncc(C(=O)N(C)C4CCCCC4)s3)cc2NC(=O)c2c[nH]c(=O)cc2C(F)(F)F)C[C@H](C)N1C [Example 499, N-cyclohexyl-2-[2-fluoro-5-[[6-oxo-4-(trifluoromethyl)-1H-pyridine-3-carbonyl]amino]-4-[(3R,5S)-3,4,5-trimethylpiperazin-1-yl]phenyl]-N-methyl-1,3-thiazole-5-carboxamide] | 3.4
16 | C[C@@H]1CN(c2cc(F)c(-c3ncc(C(=O)N4CCOCC4)s3)cc2NC(=O)c2c[nH]c(=O)cc2C(F)(F)F)C[C@H](C)N1C [Example 500, N-[4-fluoro-5-[5-(morpholine-4-carbonyl)-1,3-thiazol-2-yl]-2-[(3R,5S)-3,4,5-trimethylpiperazin-1-yl]phenyl]-6-oxo-4-(trifluoromethyl)-1H-pyridine-3-carboxamide] | 1.85
17 | C[C@@H]1CN(c2cc(F)c(-c3ncc(C(=O)N4CCN(C)CC4)s3)cc2NC(=O)c2c[nH]c(=O)cc2C(F)(F)F)C[C@H](C)N1C [Example 501, N-[4-fluoro-5-[5-(4-methylpiperazine-1-carbonyl)-1,3-thiazol-2-yl]-2-[(3R,5S)-3,4,5-trimethylpiperazin-1-yl]phenyl]-6-oxo-4-(trifluoromethyl)-1H-pyridine-3-carboxamide] | 3.44
18 | C[C@@H]1CN(c2cc(F)c(-c3cnc(N4CCOCC4)nc3)cc2NC(=O)c2cc(N)c(F)cc2C(F)(F)F)C[C@H](C)N1C [Example 502, 5-amino-4-fluoro-N-[4-fluoro-5-(2-morpholin-4-ylpyrimidin-5-yl)-2-[(3R,5S)-3,4,5-trimethylpiperazin-1-yl]phenyl]-2-(trifluoromethyl)benzamide] | 1.15
19 | C[C@@H]1CN(c2cc(F)c(C3=CCN(c4ccc(C5CC5)nn4)CC3)cc2NC(=O)c2c[nH]c(=O)cc2C(F)(F)F)C[C@H](C)N1C [Example 503, N-[5-[1-(6-cyclopropylpyridazin-3-yl)-3,6-dihydro-2H-pyridin-4-yl]-4-fluoro-2-[(3R,5S)-3,4,5-trimethylpiperazin-1-yl]phenyl]-6-oxo-4-(trifluoromethyl)-1H-pyridine-3-carboxamide] | 2.44
20 | CCc1ccc(N2CC=C(c3cc(NC(=O)c4c[nH]c(=O)cc4C(F)(F)F)c(N4C[C@@H](C)N(C)[C@@H](C)C4)cc3F)CC2)nn1 [Example 504, N-[5-[1-(6-ethylpyridazin-3-yl)-3,6-dihydro-2H-pyridin-4-yl]-4-fluoro-2-[(3R,5S)-3,4,5-trimethylpiperazin-1-yl]phenyl]-6-oxo-4-(trifluoromethyl)-1H-pyridine-3-carboxamide] | 2.44
21 | COc1cc(C(F)(F)F)c(C(=O)Nc2cc(-c3cnc(N4CCOCC4)nc3)c(F)cc2N2C[C@@H](C)N(C)[C@@H](C)C2)cn1 [Example 506, N-[4-fluoro-5-(2-morpholin-4-ylpyrimidin-5-yl)-2-[(3R,5S)-3,4,5-trimethylpiperazin-1-yl]phenyl]-6-methoxy-4-(trifluoromethyl)pyridine-3-carboxamide] | 354
22 | C[C@@H]1CN(c2ccc(-c3cc(NC(=O)c4c[nH]c(=O)cc4C(F)F)c(N4CCN(C)[C@@H](C)C4)cc3F)cn2)CCO1 [Example 509, 4-(difluoromethyl)-N-[4-fluoro-2-[(3S)-3,4-dimethylpiperazin-1-yl]-5-[6-[(2R)-2-methylmorpholin-4-yl]pyridin-3-yl]phenyl]-6-oxo-1H-pyridine-3-carboxamide] | 0.947
23 | C[C@@H]1CN(c2ccc(-c3cc(NC(=O)c4c[nH]c(=O)cc4C(F)F)c(N4C[C@@H](C)N(C)[C@@H](C)C4)cc3F)cn2)C[C@H](C)O1 [Example 511, 4-(difluoromethyl)-N-[4-fluoro-5-[6-[(2R,6S)-2,6-dimethylmorpholin-4-yl]pyridin-3-yl]-2-[(3R,5S)-3,4,5-trimethylpiperazin-1-yl]phenyl]-6-oxo-1H-pyridine-3-carboxamide] | 0.779
24 | C[C@@H]1CN(c2ccc(-c3cc(NC(=O)c4c[nH]c(=O)cc4C(F)F)c(N4CCN(C)[C@@H](C)C4)cc3F)cn2)C[C@H](C)O1 [Example 514, 4-(difluoromethyl)-N-[4-fluoro-5-[6-[(2R,6S)-2,6-dimethylmorpholin-4-yl]pyridin-3-yl]-2-[(3S)-3,4-dimethylpiperazin-1-yl]phenyl]-6-oxo-1H-pyridine-3-carboxamide] | 0.959
